Source: patent US6960597B2, “Aza-bridged-bicyclic amino acid derivatives as α4 integrin antagonists” (Orth-McNeil Pharmaceutical, Inc., priority 2000, dated 2005)
Like-named read-outs stand apart in the source and are kept apart here.

Key:
human α4β7 = target: T1, human α4β7 (Homo sapiens, UniProt P13612+P26010); experiment: α4β7-K562 Cell Adhesion Assay (α4β7 Mediated Adhesion/VCAM-1); assay type: cell-based
T1 construct: expressed in transfected cells
T1 sequence (P13612 34-1032): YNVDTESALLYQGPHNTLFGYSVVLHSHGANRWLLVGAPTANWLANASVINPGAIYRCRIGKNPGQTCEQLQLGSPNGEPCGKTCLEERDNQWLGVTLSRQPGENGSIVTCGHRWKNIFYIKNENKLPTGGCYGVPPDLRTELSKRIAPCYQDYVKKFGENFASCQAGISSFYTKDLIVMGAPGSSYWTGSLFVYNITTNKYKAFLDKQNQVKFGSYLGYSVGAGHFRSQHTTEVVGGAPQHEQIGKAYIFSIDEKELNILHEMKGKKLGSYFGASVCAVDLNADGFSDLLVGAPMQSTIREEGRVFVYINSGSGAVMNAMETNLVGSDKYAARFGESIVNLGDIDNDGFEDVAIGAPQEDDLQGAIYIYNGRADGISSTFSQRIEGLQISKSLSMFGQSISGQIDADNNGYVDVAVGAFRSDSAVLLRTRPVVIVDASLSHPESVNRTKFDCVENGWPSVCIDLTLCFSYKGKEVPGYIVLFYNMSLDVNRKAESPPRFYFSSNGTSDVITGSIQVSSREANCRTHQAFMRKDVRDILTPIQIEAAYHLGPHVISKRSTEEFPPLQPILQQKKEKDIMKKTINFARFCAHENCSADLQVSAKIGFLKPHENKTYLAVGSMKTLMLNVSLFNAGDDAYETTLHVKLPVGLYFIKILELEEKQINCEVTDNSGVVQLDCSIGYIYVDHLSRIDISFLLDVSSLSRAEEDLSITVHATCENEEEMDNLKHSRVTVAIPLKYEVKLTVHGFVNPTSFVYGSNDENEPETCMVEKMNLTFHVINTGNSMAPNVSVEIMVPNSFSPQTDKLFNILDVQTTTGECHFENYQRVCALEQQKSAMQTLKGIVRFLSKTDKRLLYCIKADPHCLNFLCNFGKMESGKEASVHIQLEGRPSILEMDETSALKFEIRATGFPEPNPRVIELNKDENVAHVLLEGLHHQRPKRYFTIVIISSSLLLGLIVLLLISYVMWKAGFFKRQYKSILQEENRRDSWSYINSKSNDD
T1 sequence (P26010 20-798): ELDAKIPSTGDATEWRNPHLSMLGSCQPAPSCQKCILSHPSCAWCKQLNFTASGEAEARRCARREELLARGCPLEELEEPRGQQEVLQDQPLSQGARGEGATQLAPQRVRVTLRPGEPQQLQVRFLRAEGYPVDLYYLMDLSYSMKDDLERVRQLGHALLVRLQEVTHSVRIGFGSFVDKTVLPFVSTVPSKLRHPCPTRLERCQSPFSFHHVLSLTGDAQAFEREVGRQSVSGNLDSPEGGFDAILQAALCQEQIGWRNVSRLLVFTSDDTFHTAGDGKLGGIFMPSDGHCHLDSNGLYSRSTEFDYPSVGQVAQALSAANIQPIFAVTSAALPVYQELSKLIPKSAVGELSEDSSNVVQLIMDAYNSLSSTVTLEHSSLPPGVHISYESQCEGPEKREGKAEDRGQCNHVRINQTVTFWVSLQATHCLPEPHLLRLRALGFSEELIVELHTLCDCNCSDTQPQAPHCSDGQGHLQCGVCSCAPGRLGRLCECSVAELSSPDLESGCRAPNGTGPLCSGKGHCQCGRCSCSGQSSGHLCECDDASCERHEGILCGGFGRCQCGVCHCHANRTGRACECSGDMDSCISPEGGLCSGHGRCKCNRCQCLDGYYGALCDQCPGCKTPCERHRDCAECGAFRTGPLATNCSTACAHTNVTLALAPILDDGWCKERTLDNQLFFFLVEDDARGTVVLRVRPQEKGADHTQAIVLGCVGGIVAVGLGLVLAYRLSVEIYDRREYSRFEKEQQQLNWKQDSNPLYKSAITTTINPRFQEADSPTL
Summary of the method: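 K562 cells stably expressing human α4β7, labelled with 5 μM Calcein AM, adhered for 1 h at room temperature to plates coated with recombinant hVCAM-1 (4.0 μg/mL) in the presence of compound. After washing, cells were lysed in Tris/SDS. Bound cells were read by fluorescence at 485/530 nm.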

α4β1 integrin receptor = target: T2, α4β1 integrin receptor (Homo sapiens, UniProt P05556+P13612); experiment: Ramos Cell Adhesion Assay (α4β1 Mediated Adhesion/VCAM-1); assay type: cell-based
T2 construct: Ramos Cell Adhesion Assay (α4β1 Mediated Adhesion/VCAM-1); endogenous in cells; host or cells: Ramos cells
T2 sequence (P05556 21-798, one chain of several): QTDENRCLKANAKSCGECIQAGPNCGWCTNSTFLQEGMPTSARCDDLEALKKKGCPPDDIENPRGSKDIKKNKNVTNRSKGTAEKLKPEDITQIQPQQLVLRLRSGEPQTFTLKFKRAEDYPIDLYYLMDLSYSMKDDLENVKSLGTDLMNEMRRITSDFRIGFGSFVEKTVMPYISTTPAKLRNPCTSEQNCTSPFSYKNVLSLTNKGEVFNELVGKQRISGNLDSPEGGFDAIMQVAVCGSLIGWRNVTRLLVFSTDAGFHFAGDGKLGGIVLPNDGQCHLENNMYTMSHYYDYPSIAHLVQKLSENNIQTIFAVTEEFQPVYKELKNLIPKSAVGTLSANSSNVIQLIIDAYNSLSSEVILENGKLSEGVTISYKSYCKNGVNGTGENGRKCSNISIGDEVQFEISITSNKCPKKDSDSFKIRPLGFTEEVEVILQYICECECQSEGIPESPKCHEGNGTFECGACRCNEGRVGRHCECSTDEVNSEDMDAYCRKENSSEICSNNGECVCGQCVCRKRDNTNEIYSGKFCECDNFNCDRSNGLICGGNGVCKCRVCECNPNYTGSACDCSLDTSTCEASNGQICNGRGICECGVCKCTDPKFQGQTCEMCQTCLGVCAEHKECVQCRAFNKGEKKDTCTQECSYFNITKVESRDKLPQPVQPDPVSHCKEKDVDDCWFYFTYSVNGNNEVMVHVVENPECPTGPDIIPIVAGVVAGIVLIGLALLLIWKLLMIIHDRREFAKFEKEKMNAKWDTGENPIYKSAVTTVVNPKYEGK
Summary of the method: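 Plates coated overnight at 4° C with recombinant hVCAM-1 (4.0 μg/mL, pH 9.0), then blocked with PBS/1% BSA. Ramos cells labelled with 5 μM Calcein AM adhered 1 h at room temperature with compound; after washing, cells were lysed in SDS and fluorescence read at 485/530 nm.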

[1] = Inhibition of Binding of Ramos Cells to Immobilized VCAM-1 IC50, Table III
[2] = Table IV, μM, read-out: Inhibition of Binding of K562 Cells to Immobilized VCAM-1 IC50
[3] = Table III, read-out: Inhibition of Binding of Ramos Cells to Immobilized VCAM-1 IC50
[4] = Table I, racemic mixtures and resolved (S,S) and (R,S) diastereomers, read-out: Antagonist IC50 Activity α4β7
[5] = Table I, racemic mixtures and resolved (S,S) and (R,S) diastereomers, read-out: Antagonist IC50 Activity α4β1
[6] = Table III, μM, read-out: Inhibition of Binding of Ramos Cells to Immobilized VCAM-1 IC50
[7] = Table IV, read-out: Inhibition of Binding of K562 Cells to Immobilized VCAM-1 IC50

## CN(C)C(=O)Oc1ccc(C[C@H](NC(=O)C2C3CCC(CC3)N2S(=O)(=O)c2ccccc2)C(=O)O)cc1 (mixture of isomers) [Cpd 52, O-[(dimethylamino)carbonyl]-N-[[2-(phenylsulfonyl)-2-azabicyclo[2.2.2]oct-3-yl]carbonyl]-L-tyrosine]
Human α4β7
  IC50: 0.998 µM
α4β1 integrin receptor; Antagonist IC50 Activity α4β1, Table I, racemic mixtures and resolved (S,S) and (R,S) diastereomers
  IC50: 0.124 µM
α4β1 integrin receptor; [1]
  IC50: 0.124 µM

## Cc1ccc(S(=O)(=O)N2C3CCC(CC3)C2C(=O)N[C@@H](Cc2ccc(NC(=O)c3ccccc3OC(F)(F)F)cc2)C(=O)O)cc1 (stereo partly drawn) [Cpd 13]
Human α4β7; [2]
  IC50: > 10 µM
α4β1 integrin receptor; [3]
  IC50: 0.119 µM

## O=C(Nc1ccc(C[C@H](NC(=O)[C@@H]2C3CCC(CC3)N2S(=O)(=O)c2ccccc2)C(=O)O)cc1)c1c(Cl)cccc1Cl [Cpd 6a, 4-[(2,6-dichlorobenzoyl)amino]-N-[[(3S)-2-(phenylsulfonyl)-2-azabicyclo[2.2.2]oct-3-yl]carbonyl]-L-phenylalanine]
Human α4β7; [4]
  IC50: 0.217 µM
α4β1 integrin receptor; [5]
  IC50: 0.023 µM
α4β1 integrin receptor; [3]
  IC50: 0.021 µM

## CN(C(=O)[C@H]1C2CCC(CC2)N1S(=O)(=O)c1ccccc1)[C@@H](Cc1ccc(NC(=O)c2c(Cl)cccc2Cl)cc1)C(=O)O [Cpd 39, 4-[(2,6-dichlorobenzoyl)amino]-N-methyl-N-[[(3R)-2-(phenylsulfonyl)-2-azabicyclo[2.2.2]oct-3-yl]carbonyl]-L-phenylalanine]
Human α4β7; [2]
  IC50: > 10 µM
α4β1 integrin receptor; [6]
  IC50: > 5 µM

## O=C(Nc1ccc(C[C@H](NC(=O)C2C3CCC(CC3)N2S(=O)(=O)c2ccccc2)C(=O)O)cc1)C1CCNCC1 (stereo partly drawn) [Cpd 59, 4-[(4-piperidinylcarbonyl)amino]-N-[[2-(phenylsulfonyl)-2-azabicyclo[2.2.2]oct-3-yl]carbonyl]-L-phenylalanine]
Human α4β7; [7]
  IC50: 1.5 µM
α4β1 integrin receptor; [3]
  IC50: 0.237 µM

## CN(C)C(=O)Oc1ccc(C[C@H](NC(=O)C2C3CCC(CC3)N2S(=O)(=O)c2cccs2)C(=O)O)cc1 (stereo partly drawn) [Cpd 63, O-[(dimethylamino)carbonyl]-N-[[2-(2-thienylsulfonyl)-2-azabicyclo[2.2.2]oct-3-yl]carbonyl]-L-tyrosine]
Human α4β7
  IC50: 0.286 µM
α4β1 integrin receptor; [1]
  IC50: 0.112 µM

## O=C(Nc1ccc(C[C@H](NC(=O)C2C3CCC(CC3)N2S(=O)(=O)c2cccs2)C(=O)O)cc1)c1c(Cl)cncc1Cl (mixture of isomers) [Cpd 71, 4-[[(3,5-dichloro-4-pyridinyl)carbonyl]amino]-N-[[2-(2-thienylsulfonyl)-2-azabicyclo[2.2.2]oct-3-yl]carbonyl]-L-phenylalanine]
Human α4β7; [4]
  IC50: 0.03 µM
α4β1 integrin receptor; [5]
  IC50: 0.009 µM
α4β1 integrin receptor; [3]
  IC50: 0.007 µM

## O=C(N[C@@H](Cc1ccc(N2C(=O)c3ccccc3C2=O)cc1)C(=O)O)C1C2CCC(CC2)N1S(=O)(=O)c1ccccc1 (mixture of isomers) [Cpd 47, 4-(1,3-dihydro-1,3-dioxo-2H-isoindol-2-yl)-N-[[2-(phenylsulfonyl)-2-azabicyclo[2.2.2]oct-3-yl]carbonyl]-L-phenylalanine]
Human α4β7; [4]
  IC50: 0.083 µM
α4β1 integrin receptor; [5]
  IC50: 0.074 µM
α4β1 integrin receptor; [3]
  IC50: 0.074 µM

## COc1cccc(OC)c1C(=O)Nc1cccc(C[C@H](NC(=O)C2C3CCC(CC3)N2S(=O)(=O)c2ccc(C)cc2)C(=O)O)c1 (stereo partly drawn) [Cpd 36, 3-[(2,6-dimethoxybenzoyl)amino]-N-[[2-[(4-methylphenyl)sulfonyl]-2-azabicyclo[2.2.2]oct-3-yl]carbonyl]phenylalanine]
Human α4β7; [2]
  IC50: > 10 µM
α4β1 integrin receptor; [6]
  IC50: > 5 µM

## O=C(O)[C@H](Cc1ccc(N2C(=O)c3ccccc3C2=O)cc1)NC(=O)[C@@H]1C2CCC(CC2)N1S(=O)(=O)c1ccccc1 [Cpd 47a, 4-(1,3-dihydro-1,3-dioxo-2H-isoindol-2-yl)-N-[[(3S)-2-(phenylsulfonyl)-2-azabicyclo[2.2.2]oct-3-yl]carbonyl]-L-phenylalanine]
Human α4β7; [4]
  IC50: 0.102 µM
α4β1 integrin receptor; [5]
  IC50: 0.026 µM
α4β1 integrin receptor; [3]
  IC50: 0.026 µM

## O=C(Nc1ccc(C[C@H](NC(=O)C2C3CCC(CC3)N2S(=O)(=O)c2ccccc2)C(=O)O)cc1)c1c(Cl)cccc1Cl (mixture of isomers) [Cpd 6, 4-[(2,6-dichlorobenzoyl)amino]-N-[[2-(phenylsulfonyl)-2-azabicyclo[2.2.2]oct-3-yl]carbonyl]-L-phenylalanine]
Human α4β7; [4]
  IC50: 0.283 µM
α4β1 integrin receptor; [5]
  IC50: 0.02 µM
α4β1 integrin receptor; [3]
  IC50: 0.025 µM

## O=C(Nc1ccc(C[C@H](NC(=O)C2C3CCC(CC3)N2S(=O)(=O)c2ccccc2)C(=O)O)cc1)c1c(F)cccc1F (stereo partly drawn) [Cpd 15, 4-[(2,6-difluorobenzoyl)amino]-N-[[2-(phenylsulfonyl)-2-azabicyclo[2.2.2]oct-3-yl]carbonyl]-L-phenylalanine]
Human α4β7; [7]
  IC50: 1.39 µM
α4β1 integrin receptor; [3]
  IC50: 0.067 µM

## Cc1ccc(S(=O)(=O)N2C3CCC(CC3)C2C(=O)N[C@@H](Cc2ccc(NC(=O)c3c(F)cccc3F)cc2)C(=O)O)cc1 (stereo partly drawn) [Cpd 11, 4-[(2,6-difluorobenzoyl)amino]-N-[[2-[(4-methylphenyl)sulfonyl]-2-azabicyclo[2.2.2]oct-3-yl]carbonyl]-L-phenylalanine]
Human α4β7; [7]
  IC50: 1.49 µM
α4β1 integrin receptor; [3]
  IC50: 0.179 µM

## O=C(Nc1ccc(C[C@H](NC(=O)C2C3CCC(CC3)N2S(=O)(=O)c2ccccc2)C(=O)O)cc1)c1c(F)cc(F)cc1F (stereo partly drawn) [Cpd 43, 4-[(2,4,6-trifluorobenzoyl)amino]-N-[[2-(phenylsulfonyl)-2-azabicyclo[2.2.2]oct-3-yl]carbonyl]-L-phenylalanine]
Human α4β7; [7]
  IC50: 0.442 µM
α4β1 integrin receptor; [3]
  IC50: 0.103 µM

## Cc1ccc(S(=O)(=O)N2C3CCC(CC3)C2C(=O)N[C@@H](Cc2ccc(OCc3ccccc3)cc2)C(=O)O)cc1 (stereo partly drawn) [Cpd 30, 4-(phenylmethoxy)-N-[[2-[(4-methylphenyl)sulfonyl]-2-azabicyclo[2.2.2]oct-3-yl]carbonyl]-L-phenylalanine]
Human α4β7; [2]
  IC50: > 10 µM
α4β1 integrin receptor; [6]
  IC50: > 5 µM

## COc1cccc(OC)c1-c1ccc(C[C@H](NC(=O)[C@@H]2C3CCC(CC3)N2S(=O)(=O)c2ccccc2)C(=O)O)cc1 [Cpd 8, 4-(2,6-dimethoxyphenyl)-N-[[(3S)-2-(phenylsulfonyl)-2-azabicyclo[2.2.2]oct-3-yl]carbonyl]-L-phenylalanine]
Human α4β7; [7]
  IC50: 0.343 µM
α4β1 integrin receptor; [3]
  IC50: 0.081 µM

## O=C(N[C@@H](Cc1ccc(OCc2c(Cl)cccc2Cl)cc1)C(=O)O)C1C2C=CC(CC2)N1S(=O)(=O)c1ccccc1 (stereo partly drawn) [Cpd 40, O-[(2,6-dichlorophenyl)methyl]-N-[[2-(phenylsulfonyl)-2-azabicyclo[2.2.2]oct-5-en-3-yl]carbonyl]-L-tyrosine]
Human α4β7; [7]
  IC50: 2.51 µM
α4β1 integrin receptor; [3]
  IC50: 0.293 µM

## Cc1ccc(S(=O)(=O)N2C3CCC(CC3)C2C(=O)N[C@@H](Cc2ccc(NC(=O)c3ccccc3)cc2)C(=O)O)cc1 (stereo partly drawn) [Cpd 25, 4-(benzoylamino)-N-[[2-[(4-methylphenyl)sulfonyl]-2-azabicyclo[2.2.2]oct-3-yl]carbonyl]-L-phenylalanine]
Human α4β7; [2]
  IC50: > 10 µM
α4β1 integrin receptor; [3]
  IC50: 0.903 µM
